Four compounds from ChEMBL document CHEMBL1250451, “Mechanistic insights into a Ca2+-dependent family of alpha-mannosidases in a human gut symbiont” (Nat Chem Biol, 2010) can be followed below.

Structures are written as SMILES. Activity calls are given as the source filed them. The rule behind the calls is not given here.

Type in all cases: protein assay
In test [1] the target is T1, Alpha-1,2-mannosidase (BT_2948) (Bacteroides thetaiotaomicron) (UniProt Q8A3K6).
T1 sequence (whole entry): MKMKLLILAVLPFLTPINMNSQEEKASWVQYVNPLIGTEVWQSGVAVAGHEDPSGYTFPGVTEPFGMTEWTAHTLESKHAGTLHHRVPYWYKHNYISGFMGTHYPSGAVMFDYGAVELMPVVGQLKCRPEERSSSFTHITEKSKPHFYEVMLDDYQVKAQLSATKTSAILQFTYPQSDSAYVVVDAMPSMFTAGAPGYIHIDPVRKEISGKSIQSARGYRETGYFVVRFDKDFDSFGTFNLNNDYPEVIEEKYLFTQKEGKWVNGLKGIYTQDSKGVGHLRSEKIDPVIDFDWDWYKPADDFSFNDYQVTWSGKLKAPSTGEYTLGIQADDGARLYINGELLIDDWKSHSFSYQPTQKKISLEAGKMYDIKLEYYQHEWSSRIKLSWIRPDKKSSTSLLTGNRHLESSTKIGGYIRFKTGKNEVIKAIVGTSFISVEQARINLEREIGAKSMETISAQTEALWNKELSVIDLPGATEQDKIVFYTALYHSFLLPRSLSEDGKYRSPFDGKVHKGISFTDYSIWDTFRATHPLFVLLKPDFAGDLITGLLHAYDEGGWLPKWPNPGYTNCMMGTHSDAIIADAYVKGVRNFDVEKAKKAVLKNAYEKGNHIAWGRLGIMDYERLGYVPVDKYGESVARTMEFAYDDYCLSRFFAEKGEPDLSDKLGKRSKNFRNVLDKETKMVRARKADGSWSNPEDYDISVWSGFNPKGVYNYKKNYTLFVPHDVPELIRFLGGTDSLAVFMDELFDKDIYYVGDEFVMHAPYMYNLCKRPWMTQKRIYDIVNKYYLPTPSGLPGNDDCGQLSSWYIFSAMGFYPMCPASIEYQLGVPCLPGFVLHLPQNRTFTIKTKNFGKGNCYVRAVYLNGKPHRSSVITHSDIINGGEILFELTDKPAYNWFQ
Description: Activity of Bacteroides thetaiotaomicron GH92 alpha-mannosidase GH92 alpha-mannosidase 2948 assessed as mannose release at 1 mM after 16 hrs by HPLC relative to untreated control after 16 hrs by HPLC.

The target of test [2] is T2, Alpha-1,2-mannosidase (BT_3527) (Bacteroides thetaiotaomicron) (UniProt Q8A1Y1).
T2 sequence (whole entry): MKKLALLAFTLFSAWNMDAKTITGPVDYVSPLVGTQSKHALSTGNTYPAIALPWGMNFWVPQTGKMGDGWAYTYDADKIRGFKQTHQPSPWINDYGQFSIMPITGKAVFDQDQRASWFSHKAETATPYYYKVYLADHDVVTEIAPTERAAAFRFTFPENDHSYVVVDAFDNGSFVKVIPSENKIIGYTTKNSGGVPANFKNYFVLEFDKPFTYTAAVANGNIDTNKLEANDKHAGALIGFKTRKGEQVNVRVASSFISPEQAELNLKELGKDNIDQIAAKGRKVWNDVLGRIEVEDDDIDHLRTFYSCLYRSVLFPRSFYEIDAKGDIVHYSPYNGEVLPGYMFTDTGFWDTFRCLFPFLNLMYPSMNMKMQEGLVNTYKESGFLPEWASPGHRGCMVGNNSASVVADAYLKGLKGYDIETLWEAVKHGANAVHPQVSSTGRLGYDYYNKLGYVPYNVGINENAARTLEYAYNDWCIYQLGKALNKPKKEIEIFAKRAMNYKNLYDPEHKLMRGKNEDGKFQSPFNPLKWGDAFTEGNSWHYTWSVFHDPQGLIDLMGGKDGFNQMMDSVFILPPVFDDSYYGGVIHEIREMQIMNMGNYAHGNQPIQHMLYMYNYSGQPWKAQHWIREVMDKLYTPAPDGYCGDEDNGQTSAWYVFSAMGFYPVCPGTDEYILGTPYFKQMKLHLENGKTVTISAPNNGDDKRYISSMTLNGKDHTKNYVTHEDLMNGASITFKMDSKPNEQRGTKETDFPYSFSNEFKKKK
The experiment in a line: Activity of Bacteroides thetaiotaomicron GH92 alpha-mannosidase GH92 alpha-mannosidase 3527 assessed as mannose release at 1 mM after 16 hrs by HPLC relative to untreated control after 16 hrs by HPLC.

Test [3] has as its target T3, Alpha-1,2-mannosidase, putative (BT_3130) (Bacteroides thetaiotaomicron) (UniProt Q8A325).
T3 sequence (whole entry): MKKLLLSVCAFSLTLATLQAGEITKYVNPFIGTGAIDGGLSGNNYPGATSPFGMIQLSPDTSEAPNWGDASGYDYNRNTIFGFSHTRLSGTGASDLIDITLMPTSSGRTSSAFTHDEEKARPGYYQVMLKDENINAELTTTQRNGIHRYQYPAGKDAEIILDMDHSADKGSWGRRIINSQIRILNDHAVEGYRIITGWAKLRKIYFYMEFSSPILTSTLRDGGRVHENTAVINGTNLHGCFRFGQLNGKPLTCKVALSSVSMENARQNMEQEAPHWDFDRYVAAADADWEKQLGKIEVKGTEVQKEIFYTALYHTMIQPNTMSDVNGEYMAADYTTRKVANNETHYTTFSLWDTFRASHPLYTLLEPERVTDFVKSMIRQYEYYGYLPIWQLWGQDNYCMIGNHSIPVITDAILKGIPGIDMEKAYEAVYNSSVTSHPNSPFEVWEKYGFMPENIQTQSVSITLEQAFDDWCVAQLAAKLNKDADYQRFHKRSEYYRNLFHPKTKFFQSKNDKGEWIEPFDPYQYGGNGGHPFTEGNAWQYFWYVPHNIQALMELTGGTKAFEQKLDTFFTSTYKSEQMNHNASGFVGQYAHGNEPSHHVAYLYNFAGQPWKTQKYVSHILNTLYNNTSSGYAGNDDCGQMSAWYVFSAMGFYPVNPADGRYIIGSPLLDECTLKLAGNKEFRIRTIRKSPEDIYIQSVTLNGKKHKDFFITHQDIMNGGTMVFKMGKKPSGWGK
Description: Activity of Bacteroides thetaiotaomicron GH92 alpha-mannosidase GH92 alpha-mannosidase 3130 assessed as mannose release at 1 mM after 16 hrs by HPLC relative to untreated control after 16 hrs by HPLC.

With `OC[C@H]1O[C@H](O[C@@H]2[C@H](O)[C@@H](O)O[C@H](CO)[C@H]2O)[C@@H](O)[C@@H](O)[C@@H]1O`, the outcome in test [1] and in test [2] was inactive.
As to `OC[C@H]1O[C@H](O[C@H]2[C@H](O)[C@H](O)[C@@H](O)O[C@@H]2CO)[C@@H](O)[C@@H](O)[C@@H]1O`, the outcome in test [1] and in test [2] was inactive. Also, the Activity in test [3] was found to be 23%.
Turning to `OC[C@H]1O[C@H](O[C@H]2[C@@H](O)[C@H](O)[C@@H](CO)O[C@@H]2O)[C@@H](O)[C@@H](O)[C@@H]1O`, the result in test [1] and in test [2] was inactive. In addition, the Activity in test [3] was determined as 4.3%.
As for `OC[C@H]1O[C@H](OC[C@H]2O[C@H](O)[C@@H](O)[C@@H](O)[C@@H]2O)[C@@H](O)[C@@H](O)[C@@H]1O`, the outcome in test [1] and in test [2] was inactive. The Activity in test [3] amounted to 21%.
